Reference: US7709466B2, “Pyridazinone derivatives, methods for their production and their use as pharmaceuticals” (Sanofi-Aventis Deutschland GmbH, priority 2004, dated 2010)

biological target: GSK-3β (Homo sapiens, UniProt P49841); experiment: GSK-3β activity, AlphaScreen technology, determination of IC50-values; format: biochemical; details: human recombinant enzyme, primed glycogen synthase substrate peptide, 10 μM ATP, 60 min at room temperature, triplicate; read-out: GSK3β (μmol)
Method: Functional Measurements for Determination of IC50-Values
GSK-3βGSK-β activity is measured using human recombinant GSK-β and a primed (pre-phosphorylated) substrate peptide (derived from glycogen synthase and containing the phosphorylation sites 3a, b, and c) on basis of the AlphaScreen technology in 384-well plate format (small volume plate, white, GREINER). In a final volume of 11 μl, 2 μl of compound (1 nM-[…] in kinase buffer, DMSO (dimethylsulfoxide) kept constant at 0.9%), 2 μl of GSK-βsolution (0.18 nM) and 2 μl of biot. phospho-glycogen synthase peptide (34 nM) in kinase buffer (20 mM Hepes, pH 7.4, 10 mM MgCl2, […] (ethylenediaminotetraacetate), 1 mM DTT (dithiotriol), 0.1 mg/ml BSA (bovine serum albumin), 10 μM ATP (adenosinetriphosphate)) are incubated at room temperature for 60 min.

Sequence of GSK-3β (P49841 whole entry): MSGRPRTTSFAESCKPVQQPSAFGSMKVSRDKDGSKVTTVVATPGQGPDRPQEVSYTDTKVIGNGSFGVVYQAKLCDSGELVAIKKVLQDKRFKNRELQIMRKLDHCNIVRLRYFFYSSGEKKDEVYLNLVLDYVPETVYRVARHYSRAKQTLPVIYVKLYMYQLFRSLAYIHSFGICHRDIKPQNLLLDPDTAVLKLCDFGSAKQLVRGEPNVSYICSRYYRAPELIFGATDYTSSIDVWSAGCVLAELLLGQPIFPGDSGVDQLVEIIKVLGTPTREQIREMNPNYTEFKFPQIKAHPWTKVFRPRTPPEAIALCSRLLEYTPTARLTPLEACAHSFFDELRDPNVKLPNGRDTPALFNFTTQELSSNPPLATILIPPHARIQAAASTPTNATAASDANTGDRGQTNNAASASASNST

Going from `Cc1cc(-c2cc(-c3cc4ccccc4[nH]3)c(=O)[nH]n2)cc(C)c1O` [Example 6, 6-(4-Hydroxy-3,5-dimethyl-phenyl)-4-(1H-indol-2-yl)-2H-pyridazin-3-one] to `Cc1cc(-c2cc(-c3cc4ncccc4[nH]3)c(=O)[nH]n2)cc(C)c1O` [Example 180, 6-(4-Hydroxy-3,5-dimethyl-phenyl)-4-(1H-pyrrolo[3,2-b]pyridin-2-yl)-2H-pyridazin-3-one], the IC50 falls from 590 nM to 18 nM (33-fold). The second is the more potent here.

Compared with `O=c1[nH]nc(-c2ccncc2)cc1-c1[nH]c2ccccc2c1CN1CCOCC1` [Example 11, 4-(3-Morpholin-4-ylmethyl-1H-indol-2-yl)-6-pyridin-4-yl-2H-pyridazin-3-one], `O=c1[nH]nc(-c2ccncc2)cc1-c1[nH]c2ccccc2c1Cl` [Example 26, 4-(3-Chloro-1H-indol-2-yl)-6-pyridin-4-yl-2H-pyridazin-3-one] is 4.1-fold lower in IC50: 102 nM for the first, 25 nM for the second.

Compared with `O=c1[nH]nc(-c2ccncc2)cc1-c1cc2ccc(CN3CCN(C4CC4)CC3)cc2[nH]1` [Example 65, 4-[6-(4-Cyclopropyl-piperazin-1-ylmethyl)-1H-indol-2-yl]-6-pyridin-4-yl-2H-pyridazin-3-one], `CN(Cc1ccc2cc(-c3cc(-c4ccncc4)n[nH]c3=O)[nH]c2c1)C1CCN(C2CC2)CC1` [Example 89, 4-(6-{[(1-Cyclopropyl-piperidin-4-yl)-methyl-amino]-methyl}-1H-indol-2-yl)-6-pyridin-4-yl-2H-pyridazin-3-one] is 3-fold higher in IC50: 4 nM for the first, 12 nM for the second. The first is the more potent here.

`O=C(O)[C@@H]1CCCN1Cc1ccc2cc(-c3cc(-c4ccncc4)n[nH]c3=O)[nH]c2c1` [Example 74, (S)-1-[2-(3-Oxo-6-pyridin-4-yl-2,3-dihydro-pyridazin-4-yl)-1H-indol-6-ylmethyl]-pyrrolidine-2-carboxylic acid] and `O=c1[nH]nc(-c2ccncc2)cc1-c1cc2ccc(CNC3CC3)cc2[nH]1` [Example 87, 4-(6-Cyclopropylaminometh-yl-1H-indol-2-yl)-6-pyridin-4-yl-2H-pyridazin-3-one] are within 1.5-fold of each other in IC50: 10 nM for the first, 14 nM for the second.

Going from `COc1ccc2[nH]c(-c3cc(-c4ccncc4)n[nH]c3=O)cc2n1` [Example 116, 4-(5-Methoxy-1H-pyrrolo[3,2-b]pyridin-2-yl)-6-pyridin-4-yl-2H-pyridazin-3-one] to `O=c1[nH]nc(-c2ccncc2)cc1-c1[nH]c2ccccc2c1C1CC1` [Example 118, 4-(3-Cyclopropyl-1H-indol-2-yl)-6-pyridin-4-yl-2H-pyridazin-3-one], the IC50 rises from 7 nM to 11 nM (1.6-fold).

`Cn1cc(-c2cc(-c3cc4ccccc4[nH]3)c(=O)[nH]n2)cn1` [Example 126, 4-(1H-Indol-2-yl)-6-(1-methyl-1H-pyrazol-4-yl)-2H-pyridazin-3-one] and `O=c1[nH]nc(-c2ccn[nH]2)cc1-c1cc2ccccc2[nH]1` [Example 147, 4-(1H-Indol-2-yl)-6-(2H-pyrazol-3-yl)-2H-pyridazin-3-one] are within 1.5-fold of each other in IC50: 1500 nM for the first, 2000 nM for the second.

Compared with `Cn1cc(-c2c(-c3cc(-c4ccncc4)n[nH]c3=O)[nH]c3ccccc23)cn1` [Example 133, 4-[3-(1-Methyl-1H-pyrazol-4-yl)-1H-indol-2-yl]-6-pyridin-4-yl-2H-pyridazin-3-one], `Cc1cc(-c2cc(-c3[nH]c4ccccc4c3-c3c[nH]c(=O)[nH]c3=O)c(=O)[nH]n2)cc(C)c1O` [Example 176, 5-{2-[6-(4-Hydroxy-3,5-dimethyl-phenyl)-3-oxo-2,3-dihydro-pyridazin-4-yl]-1H-indol-3-yl}-1H-pyrimidine-2,4-dione] is 11-fold higher in IC50: 7 nM for the first, 78 nM for the second. The first is the more potent here.

`CN1CCN(Cc2ccc3cc(-c4cc(-c5cccc(O)c5)n[nH]c4=O)[nH]c3c2)CC1` [Example 156, 6-(3-Hydroxy-phenyl)-4-[6-(4-methyl-piperazin-1-ylmethyl)-1H-indol-2-yl]-2H-pyridazin-3-one] and `CC(NC1CCN(C2CC2)CC1)c1ccc2cc(-c3cc(-c4ccncc4)n[nH]c3=O)[nH]c2c1` (stereo not shown) [Example 165, 4-{6-[1-(1-Cyclopropyl-piperidin-4-ylamino)-ethyl]-1H-indol-2-yl}-6-pyridin-4-yl-2H-pyridazin-3-one] are within 1.5-fold of each other in IC50: 21 nM for the first, 18 nM for the second.
